Reference: patent EP2616456B1, “NUCLEAR EXPORT INHIBITORS” (Universitätsmedizin der Johannes Gutenberg-Universität Mainz, priority 2010, dated 2012)
pIC50: −log10 of the molar value. “Also recorded” adds a separate entry of the source.

Key:
[1] = test system: RevNES-biosensor; assay: RevNES-biosensor translocation in living FaDu, MDA-MB231 and SW480 cells, fluorescence microscopy; assay type: cell-based; details: at Topt
Method: (§1) The activity of compounds C3, C5 and C24 to inhibit NES-mediated nuclear export in living cells was analyzed as described in Fetz et al., 2009 using living HeLa (cervix carcinoma), FaDu (head and neck cancer), MDA-MB231 (mammacarcinoma) and SW480 cells (colon cancer) which transiently expressed the RevNES-biosensor. The RevNES-biosensor is a fusion protein composed of (from N to C terminus) the SV40 large T-antigen nuclear localization signal (NLS), glutathion-S-transferase (GST), green fluorescent protein (GFP) and the nuclear export signal (NES) of the HIV-1 (human immunodeficiency virus) Rev protein (RevNES).
Maximum nuclear localization of fluorescence was observed after 2h (C3) and 5h (C5), respectively. Table 2: Cellular localization of green fluorescent RevNES-biosensor

[2] = test system: K562 (Bcr-Abl^+); assay: Cell death, K562; assay type: cell-based; details: K562 (Bcr-Abl^+) (chronic myeloid leukemia, CML), 25µM
[3] = test system: LS174T; assay: Cell viability (CellTiter-Glo) and cell death, LS174T; assay type: cell-based; details: for cell death induced by treatment: LS174T (colon adenocarcinoma), 25µM; for viability compared to the control: LS174T, 100µM, 72h, CellTiter-Glo
Method: (§2) To test the anti-cancer activity of the compounds, several cancer cell lines, currently used as models for different epithelial cancers and leukemias, were treated with the indicated inhibitors. […] Every 24h, the cell culture medium was replaced by fresh compound-containing medium. 72h post treatment, cell were analyzed by adding 100µl CellTiter-Glo® assay reagent (Promega). Luminescence was measured with a LuminoskanAscent device (ThermoScientific). Cells treated with a corresponding amount of DMSO only were use as a control. The luminescence (equals cell viability) of said control was set to 100%.

[4] = test system: Survivin; assay: Nuclear export of Survivin-GFP fusion transiently expressed in HeLa cells; assay type: cell-based; details: transient expression, 25µM
Method: The activity of compounds to inhibit the export of the oncologically relevant protein Survivin as well as of the HIV-1 Rev protein was analyzed.
Nuclear export of Survivin is crucial for its tumor promoting cytoprotective activity (Engels et al., 2007; Knauer et al., 2007a; Knauer et al., 2007b).

[5] = test system: RKO; assay: Cell viability (CellTiter-Glo) and cell death, RKO; assay type: cell-based; details: for cell death induced by treatment: RKO (colon cancer), 25µM; for viability compared to the control: RKO, 100µM, 72h, CellTiter-Glo
Method: as §2

[6] = test system: HeLa cells; assay: Apoptosis by immunoblot detection of cleaved Caspase 3 and PARP cleavage in HeLa lysates; assay type: cell-based; details: 25µM, lysates 72h post treatment
Description: Lysates of cells treated DMSO only were used as a control.

[7] = test system: RevNES-biosensor; assay: RevNES-biosensor translocation (NES-mediated nuclear export) in living HeLa cells, fluorescence microscopy; assay type: cell-based; details: for Cellular localization of green fluorescent RevNES-biosensor: HeLa; for Topt at 25µM: Table 4, fluorescence microscopy; for Mode of Inhibition: reversal of export inhibition after 24h, C5: 5-12h observation
Method: as §1
The cells of the control were treated with a corresponding amount of DMSO only. The cellular localization of RevNES-biosensor was monitored by fluorescence microscopy. […] Maximum of cellular accumulation was observed after 1h (C24), after 2h (C3) and after 5h (C5), respectively. […] Thus, the inhibitory activity of C3 and C24 (reversible) but not of C5 (irreversible) was reversed after 24h. Table 1: Cellular localization of green fluorescent RevNES-biosensor
Table 3: Cellular localization of green fluorescent RevNES-biosensor
(§3) IC50 value corresponds to compound concentration reducing HeLa cell viability by 50%. Topt is the time point post treatment when maximum nuclear export inhibition was observed by fluorescence microscopy. Table 4: Functional characteristics of nuclear export inhibitors

[8] = test system: SUP-B15; assay: Cell death, SUP-B15; assay type: cell-based; details: SUP-B15 (B cell precursor ALL), 25µM
[9] = test system: K562; assay: AlamarBlue viability assay, K562, alone and combined with imatinib; assay type: cell-based, human; details: K562, 25µM, 72h, single agent
Method: The BCR-ABL^+ human chronic myeloid leukemia (CML) cell line K562 was used to investigate whether combining export inhibitors with chemotherapeutic drugs currently used in the clinics enhances drug-induced cancer cell death.
72h post treatment, cells were analyzed by adding 10µl of AlamarBlue® (Invitrogen). Fluorescence (538/600nm) was measured with a LuminoskanAscent (ThermoScientific). Cells treated with DMSO only were used as a control. The fluorescence measured (equals cell viability) with said control was set to 100%.

[10] = test system: HIV-1 (strain NL4-3; CXCR-4 tropic); assay: HIV-1 replication inhibition assay in infected Tzm-bl cells (RT activity in supernatant); assay type: cell-based; details: 25 or 50µM added 24h post infection, read 48h post infection
Method: The HIV-1 Rev protein transports unspliced and inclompletely spliced viral RNAs from the nucleus into the cytoplasm, crucial for viral replication and AIDS development (Pavlakis and Stauber, 1998; Stauber et al., 1995). […] 24h post infection, DMSO only (control) or compounds C3 or C5 (stock solution in DMSO) were added to a final concentration of 25 or 50µM. 24h later (= 48h post infection) the viral particles in the supernatant were quantified by measuring reverse transcriptase (RT) activity in the viral supernatant using the RT-Lenti Kit (Cavidi-Tech; Uppsala, Sweden) (see Fig. 6A).

[11] = test system: FaDu; assay: Cell viability (CellTiter-Glo) and cell death, FaDu; assay type: cell-based; details: for cell death induced by treatment: FaDu (head and neck cancer), 25µM; for viability compared to the control: FaDu, 100µM, 72h, CellTiter-Glo
Method: as §2

[12] = test system: HeLa cells; assay: Cell viability (CellTiter-Glo) and cell death, HeLa; assay type: cell-based; details: for cell death induced by treatment: HeLa (cervix carcinoma), 25µM; for viability compared to the control: HeLa, 100µM, 72h, CellTiter-Glo; for pIC50: Homo sapiens, compound concentration reducing HeLa cell viability by 50%
Method: as §2, §3
It was assessed whether the export inhibitors also affect the viability of non-malignant human cells, precluding their potential (pre)clinical use. 10^3 freshly isolated non-malignant primary human fibroblasts (HTF-8) or HeLa cells/well were seeded and 24h later treated with the indicated compounds (final concentration: 100µM). Every 24h cell culture medium was replaced by freshly prepared compound-containing medium. 72h post treatment the cells were analyzed by adding 100µl CellTiter-Glo® assay reagent, and luminescence measured with a LuminoskanAscent (ThermoScientific). Cells treated with DMSO only were used as a control. The fluorescence measured (equals cell viability) with said control was set to 100%.

Structure (SMILES): NC(=O)c1c(NC(NC(=O)c2ccccc2F)(C(F)(F)F)C(F)(F)F)sc2c1CCCC2 [Compound C3, 2-[[1,1,1,3,3,3-hexafluoro-2-[(2-fluorobenzoyl)amino]propan-2-yl]amino]-4,5,6,7-tetrahydro-1-benzothiophene-3-carboxamide]
- Cellular localization of green fluorescent RevNES-biosensor ([1]; FaDu, 25µM): nuclear accumulation; also recorded: nucleus
- Cellular localization of green fluorescent RevNES-biosensor ([1]; MDA-MB231, 25µM): nuclear accumulation; also recorded: nucleus
- Cellular localization of green fluorescent RevNES-biosensor ([1]; SW480, 25µM): nuclear accumulation; also recorded: nucleus
- cell death induced by treatment [2]: cell death
- cell death induced by treatment [3]: cell death
- viability compared to the control [3]: significantly reduced viability
- Localization of Survivin-GFP fusion (nuclear export of Survivin) [4]: inhibited; also recorded: accumulated in the nucleus
- cell death induced by treatment [5]: cell death
- viability compared to the control [5]: significantly reduced viability
- drug-induced apoptosis (cleaved Caspase 3 and PARP cleavage) [6]: drug-induced apoptosis was shown
- Cellular localization of green fluorescent RevNES-biosensor ([7]; 25µM, T = 0h): cytoplasm
- Cellular localization of green fluorescent RevNES-biosensor ([7]; 25µM, T = 1h): nucleus/cytoplasm
- Cellular localization of green fluorescent RevNES-biosensor ([7]; 25µM, T = 24h): predominantly localized in the cytoplasm
- Cellular localization of green fluorescent RevNES-biosensor ([7]; 25µM, at Topt): nuclear accumulation; also recorded: nucleus
- Cellular localization of green fluorescent RevNES-biosensor ([7]; 75µM, T = 0h): cytoplasm
- Cellular localization of green fluorescent RevNES-biosensor ([7]; 75µM, T = 1h): nucleus
- Cellular localization of green fluorescent RevNES-biosensor ([7]; 150µM, T = 0h): cytoplasm
- Cellular localization of green fluorescent RevNES-biosensor ([7]; 150µM, T = 1h): nucleus
- Topt at 25µM ([7]; 25µM): ∼1h
- Mode of Inhibition [7]: reversible
- cell death induced by treatment [8]: cell death
- cancer cell death (AlamarBlue viability) [9]: caused cancer cell death
- RT-activity in the viral supernatant compared to the control [10]: significantly reduced the RT-activity
- cell death induced by treatment [11]: cell death
- viability compared to the control [11]: significantly reduced viability
- cell death induced by treatment [12]: cell death
- viability compared to the control [12]: significantly reduced viability; also recorded: significantly affect the viability
- pIC50 [12]: 4.42

Structure (SMILES): O=C(NC1CS(=O)(=O)CC1Cl)c1cccc(C(F)(F)F)c1 (centres unmarked) [Compound C5, N-(4-chloro-1,1-dioxothiolan-3-yl)-3-(trifluoromethyl)benzamide]
- Cellular localization of green fluorescent RevNES-biosensor ([1]; FaDu, 25µM): nuclear accumulation; also recorded: nucleus
- Cellular localization of green fluorescent RevNES-biosensor ([1]; MDA-MB231, 25µM): nuclear accumulation; also recorded: nucleus
- Cellular localization of green fluorescent RevNES-biosensor ([1]; SW480, 25µM): nuclear accumulation; also recorded: nucleus
- cell death induced by treatment [2]: cell death
- cell death induced by treatment [3]: cell death
- viability compared to the control [3]: significantly reduced viability
- Localization of Survivin-GFP fusion (nuclear export of Survivin) [4]: inhibited; also recorded: accumulated in the nucleus
- cell death induced by treatment [5]: cell death
- viability compared to the control [5]: significantly reduced viability
- drug-induced apoptosis (cleaved Caspase 3 and PARP cleavage) [6]: drug-induced apoptosis was shown
- Cellular localization of green fluorescent RevNES-biosensor ([7]; 25µM, T = 0h): cytoplasm
- Cellular localization of green fluorescent RevNES-biosensor ([7]; 25µM, T = 3h): nucleus/cytoplasm
- Cellular localization of green fluorescent RevNES-biosensor ([7]; 25µM, T = 24h): nuclear fluorescence; also recorded: nucleus
- Cellular localization of green fluorescent RevNES-biosensor ([7]; 25µM, at Topt): nuclear accumulation; also recorded: nucleus
- Cellular localization of green fluorescent RevNES-biosensor ([7]; 75µM, T = 0h): cytoplasm
- Cellular localization of green fluorescent RevNES-biosensor ([7]; 75µM, T = 3h): nucleus
- Cellular localization of green fluorescent RevNES-biosensor ([7]; 150µM, T = 0h): cytoplasm
- Cellular localization of green fluorescent RevNES-biosensor ([7]; 150µM, T = 3h): nucleus
- Topt at 25µM ([7]; 25µM): 5 to 6 h
- Mode of Inhibition [7]: irreversible; also recorded: irreversible*
- cell death induced by treatment [8]: cell death
- cancer cell death (AlamarBlue viability) [9]: caused cancer cell death
- RT-activity in the viral supernatant compared to the control [10]: significantly reduced the RT-activity
- cell death induced by treatment [11]: cell death
- viability compared to the control [11]: significantly reduced viability
- cell death induced by treatment [12]: cell death
- viability compared to the control [12]: significantly reduced viability; also recorded: significantly affect the viability
- pIC50 [12]: 4.77
